Results published in patent US6413971B1, “Fused bicyclic pyrimidine derivatives” (Pfizer Inc, priority 1996, dated 2002).
Structures can show the parent of a compound that is named as a salt.

In the case of `C#Cc1cccc(Nc2ncnc3[nH]cc(-c4cccs4)c23)c1` [Example 27, (3-Ethynyl-phenyl)-(5-thiophen-2-yl-7H-pyrrolo[2,3-d]pyrimidin4-yl]-amine], the melting point is reported as 230 to 232 °C.
For `Clc1ccc2c(c1)N(c1ncnc3cnccc13)CC2` [Example 5, 4-(6-Chloro-2,3dihydro-indol-1-yl)-pyrido[3,4-d]pyrimidine], the melting point was 194 to 196 °C.
`Cc1cc2c(N3CCc4ccc(Cl)cc43)ncnc2cn1` [Example 16, 4-(6Chloro-2,3-dihydro-indol-1-yl)-6methyl-pyrido[3,4-d]pyrimidine] gave a melting point of 232 to 234 °C.
In the case of `c1cc2c(Nc3ccc4sccc4c3)ncnc2cn1` (as salt: hydrochloride) [Example 25, Benzo[b]thiophen-5-yl-pyrido[3,4-d]pyrimidin-4-yl-amine], the melting point is reported as 280 to 282 °C.
With `C#Cc1cccc(Nc2ncnc3cnccc23)c1` (as salt: hydrochloride) [Example 24, (3-Ethynyl-phenyl)-pyrido[3,4-d]pyrimidin-4-yl-amine] the melting point was 233 to 235 °C.
For `Oc1cc2ncnc(N3CCc4ccc(Cl)cc43)c2[nH]1` [Example 10, 4-(6Chloro-2,3dihydro-indol-1-yl)-5H-pyrrolo[3,2-d]pyrimidin-6-ol], the melting point was 250 °C (dec.).
Molecule `Cc1cc2c(N3CCc4cc(F)c(Br)cc43)ncnc2cn1.Cl` has a melting point of 262 to 264 °C.
For `Cc1cc2c(N3CCc4c(Br)ccc(C)c43)ncnc2cn1.Cl`, the melting point was 232 to 244 °C.
In the case of `Cc1cc2c(N3CCc4ccc(Br)c(C)c43)ncnc2cn1.Cl`, the melting point is reported as 212 to 229 °C.
For `C#Cc1cccc(Nc2ncnc3c2ccn3CCOCCOC)c1` [Example 13, (3-Ethynyl-phenyl)-{7-[2-(2-methoxy-ethoxy)-ethyl]-7H-pyrrolo[2,3-d]pyrimidin4-yl}amine], the melting point was 240 to 241 °C.
